Data from PubChem BioAssay (NCI).
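At the GI50, growth is halved. Definition used: TGI = concentration required for complete inhibition of growth.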

Experiments:
Assay in all cases: NCI-60 cell line screen, 384-well format
UACC-62 melanoma = tested on: UACC-62 melanoma
SR leukemia = tested on: SR leukemia
DU-145 prostate = tested on: DU-145 prostate
MDA-MB-435 melanoma = tested on: MDA-MB-435 melanoma
EKVX NSCLC = tested on: EKVX NSCLC
SN12C renal = tested on: SN12C renal
SK-MEL-28 melanoma = tested on: SK-MEL-28 melanoma
OVCAR-4 ovarian = tested on: OVCAR-4 ovarian
SK-MEL-5 melanoma = tested on: SK-MEL-5 melanoma
SNB-75 CNS = tested on: SNB-75 CNS
HOP-92 NSCLC = tested on: HOP-92 NSCLC
CAKI-1 renal = tested on: CAKI-1 renal
SF-539 CNS = tested on: SF-539 CNS
T-47D breast = tested on: T-47D breast
SK-MEL-2 melanoma = tested on: SK-MEL-2 melanoma
U251 glioblastoma = tested on: U251 glioblastoma
A498 renal = tested on: A498 renal
MCF7 breast = tested on: MCF7 breast
NCI-H322M lung = tested on: NCI-H322M lung
K-562 leukemia = tested on: K-562 leukemia
MOLT-4 leukemia = tested on: MOLT-4 leukemia
UACC-257 melanoma = tested on: UACC-257 melanoma
TK-10 renal = tested on: TK-10 renal
NCI-H460 NSCLC = tested on: NCI-H460 NSCLC
OVCAR-5 ovarian = tested on: OVCAR-5 ovarian
SK-OV-3 ovarian = tested on: SK-OV-3 ovarian
NCI-H522 lung = tested on: NCI-H522 lung
IGROV1 ovarian = tested on: IGROV1 ovarian
SNB-19 CNS = tested on: SNB-19 CNS
SW-620 colon = tested on: SW-620 colon
A549 NSCLC = tested on: A549 NSCLC
BT-549 breast = tested on: BT-549 breast
ACHN renal = tested on: ACHN renal
NCI-H226 lung = tested on: NCI-H226 lung
M14 melanoma = tested on: M14 melanoma
HCT-15 colon = tested on: HCT-15 colon
MDA-MB-468 breast = tested on: MDA-MB-468 breast
NCI/ADR-RES ovarian = tested on: NCI/ADR-RES ovarian
NCI-H23 lung = tested on: NCI-H23 lung
OVCAR-8 ovarian = tested on: OVCAR-8 ovarian
UO-31 renal = tested on: UO-31 renal
MDA-MB-231 breast = tested on: MDA-MB-231 breast
KM12 colon = tested on: KM12 colon
HS 578T breast = tested on: HS 578T breast
HCC-2998 colon = tested on: HCC-2998 colon
RPMI-8226 leukemia = tested on: RPMI-8226 leukemia
786-0 renal = tested on: 786-0 renal
PC-3 prostate = tested on: PC-3 prostate
HOP-62 NSCLC = tested on: HOP-62 NSCLC
HCT-116 colon = tested on: HCT-116 colon
SF-268 CNS = tested on: SF-268 CNS
LOX IMVI melanoma = tested on: LOX IMVI melanoma
HL-60(TB) leukemia = tested on: HL-60(TB) leukemia
HT29 colon = tested on: HT29 colon
MALME-3M melanoma = tested on: MALME-3M melanoma
SF-295 CNS = tested on: SF-295 CNS

Cc1cnc(-c2ccc(-c3ccc(NC(=O)Nc4c(F)cc(F)cc4F)cc3F)c3c2C(=O)NC3)[nH]1
GI50 (UACC-62 melanoma): 219 nM
TGI (UACC-62 melanoma): 1340 nM
GI50 (SR leukemia): < 10 nM
GI50 (DU-145 prostate): 463 nM
TGI (DU-145 prostate): 1880 nM
GI50 (MDA-MB-435 melanoma): 397 nM
TGI (MDA-MB-435 melanoma): 1760 nM
GI50 (EKVX NSCLC): 816 nM
TGI (EKVX NSCLC): 3570 nM
GI50 (SN12C renal): 462 nM
TGI (SN12C renal): 2000 nM
GI50 (SK-MEL-28 melanoma): 633 nM
TGI (SK-MEL-28 melanoma): 2090 nM
GI50 (OVCAR-4 ovarian): 196 nM
TGI (OVCAR-4 ovarian): 452 nM
GI50 (SK-MEL-5 melanoma): 367 nM
TGI (SK-MEL-5 melanoma): 1520 nM
GI50 (SNB-75 CNS): 340 nM
TGI (SNB-75 CNS): 897 nM
GI50 (HOP-92 NSCLC): 1460 nM
TGI (HOP-92 NSCLC): 2790 nM
GI50 (CAKI-1 renal): 1080 nM
TGI (CAKI-1 renal): 2320 nM
GI50 (SF-539 CNS): 305 nM
TGI (SF-539 CNS): 1870 nM
GI50 (T-47D breast): 1600 nM
TGI (T-47D breast): 3000 nM
GI50 (SK-MEL-2 melanoma): 395 nM
TGI (SK-MEL-2 melanoma): 1470 nM
GI50 (U251 glioblastoma): 623 nM
TGI (U251 glioblastoma): 1960 nM
GI50 (A498 renal): 165 nM
TGI (A498 renal): 1160 nM
GI50 (MCF7 breast): 324 nM
TGI (MCF7 breast): 1490 nM
GI50 (NCI-H322M lung): 1300 nM
TGI (NCI-H322M lung): 3110 nM
GI50 (K-562 leukemia): 227 nM
TGI (K-562 leukemia): 1350 nM
GI50 (MOLT-4 leukemia): < 10 nM
GI50 (UACC-257 melanoma): 856 nM
TGI (UACC-257 melanoma): 2140 nM
GI50 (TK-10 renal): 1130 nM
TGI (TK-10 renal): 2420 nM
GI50 (NCI-H460 NSCLC): < 10 nM
TGI (NCI-H460 NSCLC): 201 nM
GI50 (OVCAR-5 ovarian): 1240 nM
TGI (OVCAR-5 ovarian): 2870 nM
GI50 (SK-OV-3 ovarian): 341 nM
TGI (SK-OV-3 ovarian): 1530 nM
GI50 (NCI-H522 lung): 1140 nM
TGI (NCI-H522 lung): 2400 nM
GI50 (IGROV1 ovarian): 1300 nM
TGI (IGROV1 ovarian): 6510 nM
GI50 (SNB-19 CNS): 1250 nM
TGI (SNB-19 CNS): 2620 nM
GI50 (SW-620 colon): 234 nM
TGI (SW-620 colon): 1310 nM
GI50 (A549 NSCLC): 616 nM
TGI (A549 NSCLC): 2150 nM
GI50 (BT-549 breast): 214 nM
TGI (BT-549 breast): 981 nM
GI50 (ACHN renal): 957 nM
TGI (ACHN renal): 4520 nM
GI50 (NCI-H226 lung): 1360 nM
TGI (NCI-H226 lung): 2740 nM
GI50 (M14 melanoma): 157 nM
TGI (M14 melanoma): 1230 nM
GI50 (HCT-15 colon): 748 nM
TGI (HCT-15 colon): 13100 nM
GI50 (MDA-MB-468 breast): < 10 nM
TGI (MDA-MB-468 breast): 434 nM
GI50 (NCI/ADR-RES ovarian): > 100000 nM
TGI (NCI/ADR-RES ovarian): > 100000 nM
GI50 (NCI-H23 lung): 450 nM
TGI (NCI-H23 lung): 1700 nM
GI50 (OVCAR-8 ovarian): 1090 nM
TGI (OVCAR-8 ovarian): 2340 nM
GI50 (UO-31 renal): 161 nM
TGI (UO-31 renal): 7350 nM
GI50 (MDA-MB-231 breast): 1030 nM
TGI (MDA-MB-231 breast): 2350 nM
GI50 (KM12 colon): < 10 nM
TGI (KM12 colon): 1140 nM
GI50 (HS 578T breast): 232 nM
TGI (HS 578T breast): 653 nM
GI50 (HCC-2998 colon): 1270 nM
TGI (HCC-2998 colon): 2690 nM
GI50 (RPMI-8226 leukemia): 19.1 nM
TGI (RPMI-8226 leukemia): 386 nM
GI50 ([…]-0 renal): 575 nM
TGI (786-0 renal): 1890 nM
GI50 (PC-3 prostate): 1190 nM
TGI (PC-3 prostate): 2440 nM
GI50 (HOP-62 NSCLC): 227 nM
TGI (HOP-62 NSCLC): 1270 nM
GI50 (HCT-116 colon): 153 nM
TGI (HCT-116 colon): 1680 nM
GI50 (SF-268 CNS): 277 nM
TGI (SF-268 CNS): 1500 nM
GI50 (LOX IMVI melanoma): 345 nM
TGI (LOX IMVI melanoma): 1690 nM
GI50 (HL-60(TB) leukemia): < 10 nM
TGI (HL-60(TB) leukemia): 121 nM
GI50 (HT29 colon): 1060 nM
TGI (HT29 colon): 2270 nM
GI50 (MALME-3M melanoma): 52.2 nM
TGI (MALME-3M melanoma): 727 nM
GI50 (SF-295 CNS): 1120 nM
TGI (SF-295 CNS): 2420 nM
